Experimental data as given in PMC548510, “Inhibition of early steps in the lentiviral replication cycle by cathelicidin host defense peptides” (Retrovirology, 2005).
Like-named read-outs stand apart in the source and are kept apart here.

Tests used:
S. aureus = assay type: cell-based, Staphylococcus aureus (ATCC 25923); conditions: radial diffusion, 1% agarose underlay, 10 mM sodium phosphate, 100 mM NaCl, pH 7.4, 3 individual experiments, quadruplicates
S. epidermidis = assay: radial diffusion assay (growth inhibition); assay type: cell-based, Staphylococcus epidermidis (ATCC 12228); conditions: 1% agarose underlay, 10 mM sodium phosphate, 100 mM NaCl, pH 7.4, 3 individual experiments, quadruplicates
E. faecalis = assay: radial diffusion assay (growth inhibition); assay type: cell-based, Enterococcus faecalis (ATCC 29212); conditions: 1% agarose underlay, 10 mM sodium phosphate, 100 mM NaCl, pH 7.4, 3 individual experiments, quadruplicates
E. coli = assay type: cell-based, Escherichia coli (ATCC 25922); conditions: radial diffusion, 1% agarose underlay, 10 mM sodium phosphate, 100 mM NaCl, pH 7.4, 3 individual experiments, quadruplicates
A. baumanii = assay: radial diffusion assay (growth inhibition); assay type: cell-based, Acinetobacter baumannii (ATCC 19606); conditions: 1% agarose underlay, 10 mM sodium phosphate, 100 mM NaCl, pH 7.4, 3 individual experiments, quadruplicates, > 128 = not susceptible
P4CCR5 cells = assay: BrdU incorporation cell proliferation assay; assay type: cell-based
Experimental: 293-Luc cells were plated in 96 well plates at a density of 2 × 10^3 cells / well. After 48 hours, 50 μl of MTT-solution (3 mg/ml) was added and incubated at 37° C under 5% CO2 for 1 hour. After this time medium was removed and 100 μl 0.04 N HCL + 10% SDS was used to dissolve the resulting blue formazan crystals in living cells. The optical density was determined at 550 nm. Each single value of the triplicates was expressed as percent of the mean of triplicates of control cultures infected with the same vector in the absence of HDPs and the mean and the standard deviation of the percent values was calculated for each triplicate. In addition the BrdU Cell proliferation ELISA with chemiluminescence detection (Roche Diagnostics GmbH, Mannheim, Germany) was performed. After 293-Luc cells or P4CCR5 cells were plated in 96 well plates at a density of 2 × 10^3 cells/well BrdU (5-bromo-2'-deoxyuridine) was added to the cells with a resulting concentration of 10 μM for the last 22 h of the incubation period. After removing the culture medium, the cells were fixed and DNA was denatured in one step with Fixdenat. Thereafter the cells were incubated with Anti-BrdU-POD for 1 h at room temperature. The chemiluminescence detection was measured after automatic injection of substrate solution with a microplate-luminometer (Orion, Berthold detection systems, Pforzheim, Germany).
To determine the effect of HDPs on vector infectivity and cell metabolism, 293A target cells were plated in triplicates into 96-well plates at 2 × 10^3 cells / well. […] The affect of HDPs on cell metabolism was determined in parallel by plating 293-Luc cells exactly the same way as 293A cells and the luciferase activity was determined after one (as a control to inhibition of adenoviral vector infectivity) or two (as a control of lentiviral infectivity) days of incubation with HDPs. For GFP-expressing vectors, vector titers were calculated from the number of GFP positive cells per well as previously described and the BrdU incorporation assay was used to monitor cytotoxic effects.

[1] = test system: retroviral vector (pRV-172) containing the amphotropic MLV Env; assay type: cell-based
[2] = test system: VSV-G pseudotyped lentiviral vector VLΔBH
[3] = test system: HIV vectors containing the HIV-1 envelope; parameters: IC50, HIV-1 Env mediated vector entry, as printed in the picture of Figure 6 A, B: unit not given beside the values
wild type HIV-1 = test system: wild type HIV-1; parameters: IC50, wild type HIV-1 infection, as printed in the picture of Figure 6 C, D: unit not given beside the values; conditions: for IC50, wild type HIV-1 infection, as printed in the picture of Figure 6 C, D: P4CCR5 indicator cells, virus titer
P. aeruginosa = assay: radial diffusion assay (growth inhibition); assay type: cell-based, Pseudomonas aeruginosa (ATCC 27853); conditions: 1% agarose underlay, 10 mM sodium phosphate, 100 mM NaCl, pH 7.4, 3 individual experiments, quadruplicates, > 128 = not susceptible

Compound: CC[C@H](C)[C@H](NC(=O)[C@H](CCCCN)NC(=O)[C@H](CCC(=O)O)NC(=O)[C@H](CCCCN)NC(=O)[C@H](CO)NC(=O)[C@H](CCCCN)NC(=O)[C@H](CCCNC(=N)N)NC(=O)[C@H](Cc1ccccc1)NC(=O)[C@H](Cc1ccccc1)NC(=O)[C@H](CC(=O)O)NC(=O)CNC(=O)[C@H](CC(C)C)NC(=O)[C@@H](N)CC(C)C)C(=O)NCC(=O)N[C@@H](CCCCN)C(=O)N[C@@H](CCC(=O)O)C(=O)N[C@@H](Cc1ccccc1)C(=O)N[C@@H](CCCCN)C(=O)N[C@@H](CCCNC(=N)N)C(=O)N[C@H](C(=O)N[C@H](C(=O)N[C@@H](CCC(N)=O)C(=O)N[C@@H](CCCNC(=N)N)C(=O)N[C@H](C(=O)N[C@@H](CCCCN)C(=O)N[C@@H](CC(=O)O)C(=O)N[C@@H](Cc1ccccc1)C(=O)N[C@@H](CC(C)C)C(=O)N[C@@H](CCCNC(=N)N)C(=O)N[C@@H](CC(N)=O)C(=O)N[C@@H](CC(C)C)C(=O)N[C@H](C(=O)N1CCC[C@H]1C(=O)N[C@@H](CCCNC(=N)N)C(=O)N[C@H](C(=O)N[C@@H](CCC(=O)O)C(=O)N[C@@H](CO)C(=O)O)[C@@H](C)O)C(C)C)[C@@H](C)CC)C(C)C)[C@@H](C)CC [LL37]
- M E C (minimal effectory concentration) (S. aureus): 4,74 ± 0,1 μg/ ml
- M E C (minimal effectory concentration) (S. epidermidis): 13,09 ± 0,6 μg/ ml
- M E C (minimal effectory concentration) (E. faecalis): 13,61 ± 0,7 μg/ ml
- M E C (minimal effectory concentration) (E. coli): 11,66 ± 1,5 μg/ ml
- M E C (minimal effectory concentration) (A. baumanii): 13,13 ± 0,2 μg/ ml
- inhibitory effects on cell proliferation at the IC50 concentrations (25 μg/ml LL37, 14 μg/ml PG-1) (P4CCR5 cells): only minimal inhibitory effects
- dose dependent reduction in luciferase activity, MLV vector compared with lentiviral vector ([1]; 293A cells, triplicates of two independent experiments): very similar
- 50% inhibitory concentration (IC50) for the VLΔBH lentiviral vector [2]: approximately 30 μg/ml
- specific inhibition of early steps of infection (lentiviral vector versus stably transduced target cells) [2]: Specific inhibition
- IC50, HIV-1 Env mediated vector entry, as printed in the picture of Figure 6 A, B ([3]; P4CCR5 cells, GFP vector titer): 25.1
- IC50, inhibition of HIV vectors containing the HIV-1 envelope ([3]; vectors containing the envelope): 25 µg/mL
- IC50, wild type HIV-1 infection, as printed in the picture of Figure 6 C, D (wild type HIV-1): 87.8

Compound: Plectasin
- M E C (minimal effectory concentration) (S. aureus): 2,42 ± 0,4 μg/ ml
- M E C (minimal effectory concentration) (S. epidermidis): 8,20 ± 0,5 μg/ ml
- M E C (minimal effectory concentration) (E. faecalis): 10,60 ± 0,7 μg/ ml
- M E C (minimal effectory concentration) (P. aeruginosa): > 128 µg/mL
- M E C (minimal effectory concentration) (E. coli): 79,10 ± 0,3 μg/ ml
- M E C (minimal effectory concentration) (A. baumanii): > 128 µg/mL

Compound: CC(C)C[C@H](NC(=O)[C@H](CCCNC(=N)N)NC(=O)CNC(=O)CNC(=O)[C@@H](N)CCCNC(=N)N)C(=O)N[C@H]1CSSC[C@@H](C(=O)N[C@H](C(=O)NCC(=O)N[C@@H](CCCNC(=N)N)C(N)=O)C(C)C)NC(=O)[C@H](C(C)C)NC(=O)[C@@H]2CSSC[C@H](NC(=O)[C@H](Cc3ccc(O)cc3)NC1=O)C(=O)N[C@@H](CCCNC(=N)N)C(=O)N[C@@H](CCCNC(=N)N)C(=O)N[C@@H](CCCNC(=N)N)C(=O)N[C@@H](Cc1ccccc1)C(=O)N2 [Protegrin-1]
- M E C (minimal effectory concentration) (S. aureus): 0,91 ± 0,04 μg/ ml
- M E C (minimal effectory concentration) (S. epidermidis): 4,48 ± 0,2 μg/ ml
- M E C (minimal effectory concentration) (E. faecalis): 4,46 ± 0,3 μg/ ml
- M E C (minimal effectory concentration) (P. aeruginosa): 3,3 ± 1,1 μg/ ml
- M E C (minimal effectory concentration) (E. coli): 2 ± 0,1 μg/ ml
- M E C (minimal effectory concentration) (A. baumanii): 5,01 ± 0,2 μg/ ml
- concentration up to which inhibitory effects on cell proliferation were not observed (P4CCR5 cells): > 50 µg/mL
- inhibitory effects on cell proliferation at the IC50 concentrations (25 μg/ml LL37, 14 μg/ml PG-1) (P4CCR5 cells): only minimal inhibitory effects
- dose dependent reduction in luciferase activity, MLV vector compared with lentiviral vector [1]: very similar
- 50% inhibitory concentration (IC50) for the VLΔBH lentiviral vector [2]: ~16.8 µg/mL
- specific inhibition of early steps of infection (lentiviral vector versus stably transduced target cells) [2]: Specific inhibition
- IC50, HIV-1 Env mediated vector entry, as printed in the picture of Figure 6 A, B [3]: 14.3
- IC50, wild type HIV-1 infection, as printed in the picture of Figure 6 C, D (wild type HIV-1): 7.2
- IC50 against wild type HIV-1 (wild type HIV-1; wild type): below 10 μg/ml

Compound: CC1(C)S[C@@H]2[C@H](NC(=O)[C@H](N)c3ccccc3)C(=O)N2[C@H]1C(=O)O [Ampicillin]
- M E C (minimal effectory concentration) (S. aureus): 10,50 ± 0,2 μg/ ml
- M E C (minimal effectory concentration) (E. faecalis): 28,85 ± 0,6 μg/ ml
- M E C (minimal effectory concentration) (E. coli): 18,9 ± 0,9 μg/ ml
